Laboratory results: US20090264477A1, “BETA ADRENERGIC RECEPTOR AGONISTS FOR TREATMENT OF PAIN AND/OR INFLAMMATION” (Warsaw Orthopedic, Inc., An Indiana Corporation, priority 2008, published 2009)

Assays:
[1] = system: rat Chronic Constriction Injury model (Bennett Model); assay: Hargreaves test (thermal paw withdrawal latency, thermal hyperalgesia) in rat Chronic Constriction Injury model; format: in vivo, Wistar rats
Description: The inventors evaluated the efficacy of a various beta-2-adrenergic receptor agonists and compared them to clonidine (an alpha-2-agonist) and saline in the rat Chronic Constriction Injury model (i.e., Bennett Model) using Wistar rats. The purpose: To determine whether the beta-2-adrenergic receptor agonists can improve pain associated behavioral responses in a rat model of neuropathic pain.
The doses given would mimic those achievable by a continuous release drug depot containing a biodegradable polymer (7 rats in each group).

[2] = system: rat Chronic Constriction Injury model (Bennett Model); assay: von Frey test (mechanical threshold, mechanical allodynia) in rat Chronic Constriction Injury model; format: in vivo, Wistar rats
Experimental: The inventors evaluated the efficacy of a various beta-2-adrenergic receptor agonists and compared them to clonidine (an alpha-2-agonist) and saline in the rat Chronic Constriction Injury model (i.e., Bennett Model) using Wistar rats.
Hargreaves tests were conducted on days 7 and 14; […], where some drug compositions having predominantly beta-2 agonist activity were compared to clonidine a drug composition that has predominantly alpha-2 agonist activity and saline. The doses given would mimic those achievable by a continuous release drug depot containing a biodegradable polymer (7 rats in each group). […]
FIG. 4 is a graphic representation of the mechanical threshold as a percentage from baseline in rats given clonidine 0.02 mg/kg, ritodrine 5 mg/kg, ritodrine 2 mg/kg, salbutamol 10 mg/kg, salbutamol 5 mg/kg, terbutaline 0.5 mg/kg, terbutaline 0.1 mg/kg, and saline subcutaneously every day for 15 days. […]

[3] = 5 mg/kg subcutaneous every day for 15 days, day 14

CC(NCCc1ccc(O)cc1)C(O)c1ccc(O)cc1 (centres unmarked) [ritodrine]
pain behavioral response for thermal hyperalgesia (thermal paw withdrawal latency, percentage of baseline) compared with saline group ([1]; 2 mg/kg subcutaneous every day for 15 days, day 7): statistically significant result of decreasing pain responses | pain behavioral response for thermal hyperalgesia (thermal paw withdrawal latency, percentage of baseline) compared with saline group [1, 3]: statistically significant result of decreasing pain responses | pain behavioral response for mechanical allodynia (mechanical threshold, percentage of baseline) compared with saline group [2, 3]: statistically significant result of decreasing pain responses

CC(C)(C)NCC(O)c1cc(O)cc(O)c1 (centres unmarked) [terbutaline]
pain behavioral response for thermal hyperalgesia (thermal paw withdrawal latency, percentage of baseline) compared with saline group ([1]; 0.1 mg/kg subcutaneous every day for 15 days, days 7 and 14): statistically significant result of decreasing pain responses | pain behavioral response for thermal hyperalgesia (thermal paw withdrawal latency, percentage of baseline) compared with saline group ([1]; 0.5 mg/kg subcutaneous every day for 15 days, days 7 and 14): statistically significant result of decreasing pain responses | pain behavioral response for mechanical allodynia (mechanical threshold, percentage of baseline) compared with saline group ([2]; 0.5 mg/kg subcutaneous every day for 15 days, day 14): statistically significant result of decreasing pain responses

CC(C)(C)NCC(O)c1ccc(O)c(CO)c1 (centres unmarked) [salbutamol]
pain behavioral response for thermal hyperalgesia (thermal paw withdrawal latency, percentage of baseline) compared with saline group ([1]; 5 mg/kg subcutaneous every day for 15 days, days 7 and 14): statistically significant result of decreasing pain responses | pain behavioral response for thermal hyperalgesia (thermal paw withdrawal latency, percentage of baseline) compared with saline group ([1]; 10 mg/kg subcutaneous every day for 15 days, days 7 and 14): statistically significant result of decreasing pain responses | pain behavioral response for mechanical allodynia (mechanical threshold, percentage of baseline) compared with saline group [2, 3]: statistically significant result of decreasing pain responses | pain behavioral response for mechanical allodynia (mechanical threshold, percentage of baseline) compared with saline group ([2]; 10 mg/kg subcutaneous every day for 15 days, days 8 and 15): statistically significant result of decreasing pain responses

Clc1cccc(Cl)c1N=C1NCCN1 [clonidine, 2,6-dichloro-N-2-imidazolidinyldenebenzenamine]
pain behavioral response for thermal hyperalgesia (thermal paw withdrawal latency, percentage of baseline) compared with saline group ([1]; 0.02 mg/kg subcutaneous every day for 15 days, day 14): statistically significant result of decreasing pain responses
